Experimental findings from US9802918B2, “Pyridineamine compounds useful as Pim kinase inhibitors” (Incyte Corporation, priority 2015, dated 2017) are described below.

Holding throughout (format): biochemical
For one assay, the target named is Pim-3 (Homo sapiens (Human), UniProt Q86V86). The assay is described as follows: Pim-3 kinase assay. Particulars: 1 mM ATP; read-out: Pim3 IC50. The method, then:
Pim-1 and Pim-3 kinase assays-20 μL reactions were run in white 384 well polystyrene plates dotted with 0.8 μL compound/DMSO in the assay buffer (50 mM Tris, pH 7.5, 0.01% Tween-20, 5 mM mgCl2, 0.01% BSA, 5 mM DTT), containing […] Biotin-labeled BAD peptide substrate (AnaSpec 62269), 1 mM ATP, and 2.5 pM (Pim-1, Invitrogen PV3503) or 1.25 pM (Pim-3, Millipore 14-738) enzyme for 1 h at 25° C. Reactions were stopped by addition of 10 μL STOP Buffer (150 mM Tris, pH=7.5, 150 mM NaCl, 75 mM EDTA, 0.01% Tween-20, 0.3% BSA,) supplemented with Phospho-Bad (Ser112) Antibody (Cell Signaling 9291) diluted 666-fold, and Streptavidin donor beads (PerkinElmer 6760002) along with Protein-A acceptor beads (PerkinElmer 6760137) at 15 μg/mL each. Supplementation of the STOP buffer with beads and stopping the reactions were done under reduced light. Prior to the stopping reactions STOP buffer with beads was preincubated for 1 h in the dark at room temperature. After stopping the reactions, plates were incubated for 1 h in the dark at room temperature before reading on a PHERAstar FS plate reader (BMG Labtech) under reduced light.

The next assay concerns the target Pim-1 (Homo sapiens (Human), UniProt P11309). The assay is described as follows: Pim-1 kinase assay. To be noted: 1 mM ATP; read-out: Pim1 IC50. The method, then:
Supplementation of the STOP buffer with beads and stopping the reactions were done under reduced light. Prior to the stopping reactions STOP buffer with beads was preincubated for 1 h in the dark at room temperature. After stopping the reactions, plates were incubated for 1 h in the dark at room temperature before reading on a PHERAstar FS plate reader (BMG Labtech) under reduced light.

Another assay concerns the target Pim-2 (Homo sapiens (Human), UniProt Q9P1W9). The assay is described as follows: Pim-2 kinase assay. To be noted: 1 mM ATP; read-out: Pim2 IC50. The protocol:
Pim-2 kinase assay—20 μL reactions were run in white 384 well polystyrene plates dotted with 0.8 μL compound/DMSO in the assay buffer (50 mM Tris, pH 7.5, 0.01% Tween-20, 5 mM mgCl2, 0.01% BSA, 5 mM DTT), containing […] Fluorescein-labeled CREBtide peptide substrate (Invitrogen PV3508), 1 mM ATP, and 1 nM enzyme (Invitrogen PV3649) for 2 h at 25° C. Reactions were stopped by addition of 10 μL TR-FRET Dilution Buffer (Invitrogen PV3574) with 30 mM EDTA and 1.5 nM LanthaScreen Tb-CREB pSer133 antibody (Invitrogen PV3566). After 30 min. incubation at room temperature, plates were read on a PHERAstar FS plate reader (BMG Labtech).

Chain of Pim-1 (P11309 whole entry): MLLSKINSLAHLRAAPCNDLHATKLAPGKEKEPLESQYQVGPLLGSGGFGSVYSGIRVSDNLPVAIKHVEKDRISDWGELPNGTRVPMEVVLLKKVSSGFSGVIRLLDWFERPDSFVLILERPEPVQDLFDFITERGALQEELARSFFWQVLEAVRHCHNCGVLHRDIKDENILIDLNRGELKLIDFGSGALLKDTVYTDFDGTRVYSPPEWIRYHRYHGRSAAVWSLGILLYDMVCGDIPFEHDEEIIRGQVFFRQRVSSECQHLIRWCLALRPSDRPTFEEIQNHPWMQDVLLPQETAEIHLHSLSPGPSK
Chain of Pim-2 (Q9P1W9 whole entry): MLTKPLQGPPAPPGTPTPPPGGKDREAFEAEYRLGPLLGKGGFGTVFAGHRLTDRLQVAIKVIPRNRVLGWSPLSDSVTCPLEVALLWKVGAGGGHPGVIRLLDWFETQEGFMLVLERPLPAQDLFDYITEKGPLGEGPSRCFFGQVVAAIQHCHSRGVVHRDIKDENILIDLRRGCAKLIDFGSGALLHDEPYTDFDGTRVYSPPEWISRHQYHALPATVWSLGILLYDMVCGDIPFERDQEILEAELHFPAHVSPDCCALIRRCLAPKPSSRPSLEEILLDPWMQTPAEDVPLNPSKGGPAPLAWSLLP

Take `C[C@@H]1C[C@H](N)CN(c2ccncc2NCc2ccc(F)c(-c3c(F)cc(CO)cc3F)n2)C1` [Example 36, (4-{6-[({4-[(3S,5R)-3-Amino-5-methylpiperidin-1-yl]pyridin-3-yl}amino)methyl]-3-fluoropyridin-2-yl}-3,5-difluorophenyl)methanol]: the values for the IC50 at Pim-3, on Pim-1 and at Pim-2 were at most 10 nM, under 10 nM and at most 100 nM, respectively.
In the case of `C[C@H]1CN(c2ccncc2NCc2ccc(F)c(-c3c(F)cc4ncccc4c3F)n2)C[C@@H](N)[C@@H]1O` [Example 37, (3R,4R,5S)-3-Amino-1-[3-({[6-(5,7-difluoroquinolin-6-yl)-5-fluoropyridin-2-yl]methyl}amino)pyridin-4-yl]-5-methylpiperidin-4-ol], the IC50 (commonly the concentration at which inhibition is half-maximal) on Pim-3 was at most 10 nM; at Pim-1, under 10 nM; on Pim-2, 100 to 1000 nM.
With `C[C@@H]1C[C@H](N)CN(c2ccncc2NCc2ccc(F)c(-c3c(F)cc4ncccc4c3F)n2)C1` [Example 38, 4-[(3S,5R)-3-Amino-5-methylpiperidin-1-yl]-N-{[6-(5,7-difluoroquinolin-6-yl)-5-fluoropyridin-2-yl]methyl}pyridin-3-amine], the IC50 is at most 10 nM on Pim-3, under 10 nM on Pim-1 and 100 to 1000 nM at Pim-2.
For `C[C@H]1CN(c2ccncc2NCc2ccc(F)c(-c3c(F)cc(CN4CCOCC4)cc3F)n2)C[C@@H](N)[C@@H]1O` [Example 39, (3R,4R,5S)-3-Amino-1-{3-[({6-[2,6-difluoro-4-(morpholin-4-ylmethyl)phenyl]-5-fluoropyridin-2-yl}methyl)amino]pyridin-4-yl}-5-methylpiperidin-4-ol], the IC50 is at most 10 nM on Pim-3, under 10 nM at Pim-1 and at most 100 nM at Pim-2.
The like results for `CNCc1cc(F)c(-c2nc(CNc3cnccc3N3C[C@@H](N)[C@H](O)[C@@H](C)C3)ccc2F)c(F)c1` [Example 40, (3R,4R,5S)-3-Amino-1-(3-(((6-(2,6-difluoro-4-((methylamino)methyl)phenyl)-5-fluoropyridin-2-yl)methyl)amino)pyridin-4-yl)-5-methylpiperidin-4-ol] were, in that order, at most 10 nM, under 10 nM and 100 to 1000 nM.
On to `C[C@H]1CN(c2ccncc2NCc2ccc(F)c(-c3c(F)cc(CN4CCC4)cc3F)n2)C[C@@H](N)[C@@H]1O` [Example 41, (3R,4R,5S)-3-Amino-1-(3-(((6-(4-(azetidin-1-ylmethyl)-2,6-difluorophenyl)-5-fluoropyridin-2-yl)methyl)amino)pyridin-4-yl)-5-methylpiperidin-4-ol], for which the IC50 at Pim-3 is at most 10 nM; on Pim-1, under 10 nM; on Pim-2, 100 to 1000 nM.
`C[C@H]1CN(c2ccncc2NCc2ccc(F)c(-c3c(F)cc(CN4CC[C@@H](O)C4)cc3F)n2)C[C@@H](N)[C@@H]1O` [Example 42, (3R,4R,5S)-3-Amino-1-(3-(((6-(2,6-difluoro-4-(((R)-3-hydroxypyrrolidin-1-yl)methyl)phenyl)-5-fluoropyridin-2-yl)methyl)amino)pyridin-4-yl)-5-methylpiperidin-4-ol]: the IC50 was at most 10 nM at Pim-3, under 10 nM on Pim-1 and at most 100 nM at Pim-2.
On to `C[C@H]1CN(c2ccncc2NCc2ccc(F)c(-c3c(F)cc(CN4CC[C@H](O)C4)cc3F)n2)C[C@@H](N)[C@@H]1O` [Example 43, (3R,4R,5S)-3-Amino-1-(3-(((6-(2,6-difluoro-4-(((S)-3-hydroxypyrrolidin-1-yl)methyl)phenyl)-5-fluoropyridin-2-yl)methyl)amino)pyridin-4-yl)-5-methylpiperidin-4-ol], for which the IC50 was at most 10 nM on Pim-3, under 10 nM at Pim-1 and at most 100 nM at Pim-2.
With `C[C@H]1CN(c2ccncc2NCc2ccc(F)c(-c3c(F)cc(CN4CC[C@@H](C#N)C4)cc3F)n2)C[C@@H](N)[C@@H]1O` [Example 44, (R)-1-(4-(6-((4-((3R,4R,5S)-3-Amino-4-hydroxy-5-methylpiperidin-1-yl)pyridin-3-ylamino)methyl)-3-fluoropyridin-2-yl)-3,5-difluorobenzyl)pyrrolidine-3-carbonitrile], the IC50 at Pim-3 is at most 10 nM; at Pim-1, under 10 nM; at Pim-2, at most 100 nM.
The corresponding values for `C[C@H]1CN(c2ccncc2NCc2ccc(F)c(-c3c(F)cc(CN4CC[C@H](C#N)C4)cc3F)n2)C[C@@H](N)[C@@H]1O` [Example 45, (S)-1-(4-(6-((4-((3R,4R,5S)-3-Amino-4-hydroxy-5-methylpiperidin-1-yl)pyridin-3-ylamino)methyl)-3-fluoropyridin-2-yl)-3,5-difluorobenzyl)pyrrolidine-3-carbonitrile] are at most 10 nM, under 10 nM and at most 100 nM.
On to `C[C@H]1CN(c2ccncc2NCc2ccc(F)c(-c3c(F)cc(CN4CC[C@@H](F)C4)cc3F)n2)C[C@@H](N)[C@@H]1O` [Example 46, (3R,4R,5S)-3-amino-1-(3-(((6-(2,6-difluoro-4-(((R)-3-fluoropyrrolidin-1-yl)methyl)phenyl)-5-fluoropyridin-2-yl)methyl)amino)pyridin-4-yl)-5-methylpiperidin-4-ol], for which the concentration for half-maximal inhibition (IC50) at Pim-3 was at most 10 nM; on Pim-1, under 10 nM; at Pim-2, at most 100 nM.
For `C[C@H]1CN(c2ccncc2NCc2ccc(F)c(-c3c(F)cc(CN4CC[C@H](F)C4)cc3F)n2)C[C@@H](N)[C@@H]1O` [Example 47, (3R,4R,5S)-3-amino-1-(3-(((6-(2,6-difluoro-4-(((S)-3-fluoropyrrolidin-1-yl)methyl)phenyl)-5-fluoropyridin-2-yl)methyl)amino)pyridin-4-yl)-5-methylpiperidin-4-ol], the 50% inhibitory concentration (IC50) on Pim-3 is at most 10 nM; on Pim-1, under 10 nM; at Pim-2 it was at most 100 nM.
The like results for `C[C@@H]1C[C@H](N)CN(c2ccncc2NCc2ccc(F)c(-c3c(F)cc(CN4CCOCC4)cc3F)n2)C1` [Example 48, 4-[(3S,5R)-3-Amino-5-methylpiperidin-1-yl]-N-({6-[2,6-difluoro-4-(morpholin-4-ylmethyl)phenyl]-5-fluoropyridin-2-yl}methyl)pyridin-3-amine] were, in that order, at most 10 nM, under 10 nM and at most 100 nM.
`CNCc1cc(F)c(-c2nc(CNc3cnccc3N3C[C@H](C)C[C@H](N)C3)ccc2F)c(F)c1` [Example 49, 4-((3S,5R)-3-Amino-5-methylpiperidin-1-yl)-N-((6-(2,6-difluoro-4-((methylamino)methyl)phenyl)-5-fluoropyridin-2-yl)methyl)pyridin-3-amine]: the results for the IC50 on Pim-3, at Pim-1 and on Pim-2 were at most 10 nM, under 10 nM and 100 to 1000 nM, respectively.
For the compound `C[C@@H]1C[C@H](N)CN(c2ccncc2NCc2ccc(F)c(-c3c(F)cc(CN4CCC4)cc3F)n2)C1` [Example 50, 4-((3S,5R)-3-Amino-5-methylpiperidin-1-yl)-N-((6-(4-(azetidin-1-ylmethyl)-2,6-difluorophenyl)-5-fluoropyridin-2-yl)methyl)pyridin-3-amine], the IC50 is at most 10 nM on Pim-3, under 10 nM on Pim-1 and 100 to 1000 nM at Pim-2.
Regarding `C[C@@H]1C[C@H](N)CN(c2ccncc2NCc2ccc(F)c(-c3c(F)cc(CN4CC[C@@H](O)C4)cc3F)n2)C1` [Example 51, (R)-1-(4-(6-((4-((3S,5R)-3-Amino-5-methylpiperidin-1-yl)pyridin-3-ylamino)methyl)-3-fluoropyridin-2-yl)-3,5-difluorobenzyl)pyrrolidin-3-ol], the IC50 was at most 10 nM at Pim-3, under 10 nM at Pim-1 and at most 100 nM on Pim-2.
`C[C@@H]1C[C@H](N)CN(c2ccncc2NCc2ccc(F)c(-c3c(F)cc(CN4CC[C@H](O)C4)cc3F)n2)C1` [Example 52, (S)-1-(4-(6-((4-((3S,5R)-3-Amino-5-methylpiperidin-1-yl)pyridin-3-ylamino)methyl)-3-fluoropyridin-2-yl)-3,5-difluorobenzyl)pyrrolidin-3-ol]: the values for the 50% inhibitory concentration (IC50) at Pim-3, on Pim-1 and at Pim-2 were at most 10 nM, under 10 nM and at most 100 nM, respectively.
